{"source": "patent US20050137183A1", "about": "“Method and pharmaceutical compositions for treating or inhibiting renal dysfunctions, diseases or disorders, particularly in diabetic patients” (Solvay Pharmaceuticals GmbH, priority 2003, published 2005)", "format_in_all_cases": "in vivo, rat", "key": {"[1]": {"system": "rats with streptozotocin-induced diabetes", "experiment": "Blood pressure (tail-cuff plethysmography), heart rate, body weight, glucose and side-effects in streptozotocin-induced diabetic rats", "method": "(§1) All experiments were conducted in accordance with guidelines for the care and use of laboratory animals. Diabetes was induced in rats by a single tail vein injection of streptozotocin (60 mg/kg b.wt.), without insulin treatment, as recently described in Horcher et al., “Renal endothelin system in diabetes: inhibition and endothelin-A antagonism.”, J. Cardiovasc. Pharmacol. 1998; 31: 492-495. Diabetes was confirmed in streptozotocin treated rats by determining serum glucose concentrations. Only those rats were included having plasma glucose concentrations of >15 mmol/l (hyperglycemic rats, diabetic rats). Three groups of rats were investigated with n 7 to 11 per group: • 1) non-diabetic rats control group; • 2) diabetic rats control group, vehicle treated; • 3) treated diabetic rats group: with test compound of formula I ((3S,2′R)-3-{1-[2′-(ethoxycarbonyl)-4′-phenylbutyl]-cyclopentane-1-carbonylamino}-2,3,4,5-tetrahydro-2-oxo-1H-1-benzazepine-1-acetic-acid), 30 mg/kg/day for 18 weeks.\nThe experiment performed according to the present invention over 18 weeks of treatment provided the following results which are detailed in Table I, and FIGS. 1 and 2. In the context of the present invention, the most important data to be considered are the mean blood pressure (BP; tail-cuff plethysmography), the protein and albumin excretion (mean values, standard deviations) in urine which was collected in metabolic cages over 24 h, and number (n) of animals in each group regarding non-diabetic controls, diabetic vehicle treated controls (=placebo) and test compound treated group.\n(§2) At baseline, serum glucose and blood pressure were similar in both diabetic groups. Compared to vehicle, the test compound of formula I had no effect on these parameters during the treatment period. After 18 weeks treatment, urinary protein and albumin excretion were measured. Protein excretion in the vehicle-treated group was about 18 mg/24 h; in the group which had received the compound of formula I it was about 4.8 mg/24 h (p=0.03 versus vehicle). Albumin excretion in the vehicle-group was about 0.5 mg/24 h, and in the which had received the compound of formula I it was about 0.1 mg/24 h (p=0.04). […] From the experiments it can be concluded that test compound of formula I decreases protein and albumin excretion in diabetic rats independent of blood pressure. From the results it may be concluded that the compounds of formula I exert a primary effect on end-organ disease."}, "[2]": {"system": "rats with streptozotocin-induced diabetes", "experiment": "Plasma concentrations of ET-1, bigET-1 and angiotensin-II in streptozotocin-induced diabetic rats", "settings": "30 mg/kg/day oral, 18 weeks", "method": "as §1, §2"}, "[3]": {"system": "rats with streptozotocin-induced diabetes", "experiment": "Glomerular filtration rate by endogenous creatinine clearance in streptozotocin-induced diabetic rats", "settings": "30 mg/kg/day oral, after 18 weeks of treatment", "method": "as §1\nGlomerular filtration rate was calculated by the endogeneous creatinine clearance. It was observed that administering a compound of formula I as defined above improved the overall glomerular filtration rate."}, "[4]": {"settings": "30 mg/kg/day oral, after 18 weeks of treatment"}, "[5]": {"settings": "30 mg/kg/day oral, during the treatment period"}}}
{"smiles": "CCOC(=O)[C@H](CCc1ccccc1)CC1(C(=O)N[C@H]2CCc3ccccc3N(CC(=O)O)C2=O)CCCC1", "note": "[test compound of formula I, (3S,2′R)-3-{1-[2′-(ethoxycarbonyl)-4′-phenylbutyl]-cyclopentane-1-carbonylamino}-2,3,4,5-tetrahydro-2-oxo-1H-1-benzazepine-1-acetic-acid]", "values": [{"measurement": "Blood Pressure, mean value", "setting": "[1]; 30 mg/kg/day oral with food, after 18 weeks of treatment, tail-cuff", "value": 129, "unit": "mmHg"}, {"measurement": "Side-effects", "setting": "[1]; 30 mg/kg/day oral, 18 weeks", "value": "No side-effects"}, {"measurement": "Body Weight, mean value", "setting": "[1]; [4]", "value": 252.7, "unit": "g"}, {"measurement": "Glucose, final, mean value", "setting": "[1]; [4]", "value": 560.33, "unit": "mg/dL"}, {"measurement": "Heart Rate, mean value", "setting": "[1]; [4]", "value": 280, "unit": "beats/min"}, {"measurement": "Effect on blood pressure compared to vehicle", "setting": "[1]; [5]", "value": "no effect"}, {"measurement": "Effect on serum glucose compared to vehicle", "setting": "[1]; [5]", "value": "no effect"}, {"measurement": "Plasma concentration of ET-1 compared to vehicle", "setting": "[2]", "value": "unchanged"}, {"measurement": "Plasma concentration of angiotensin-II compared to vehicle", "setting": "[2]", "value": "unchanged"}, {"measurement": "Plasma concentration of bigET-1 compared to vehicle", "setting": "[2]", "value": "unchanged"}, {"measurement": "Glomerular Filtration Rate, final, mean value", "setting": "[3]", "value": 2.014, "unit": "mL/min"}]}
